Like-named read-outs stand apart in the source and are kept apart here.
Columns and labels:
[1] = target: T1, CYP3A4 (Homo sapiens, UniProt P08684); experiment: Assay to assess irreversible CYP3A4 inhibition (mechanism-based inhibition) in human liver microsomes; type: in vitro ADME; conditions: CYP3A4 activity as 6β-hydroxytestosterone formation, 2-20 μM
T1 construct: using human liver microsomes (pool from various individuals); from tissue; host or cells: human liver microsomes (pool from various individuals)
T1 sequence (P08684 whole entry): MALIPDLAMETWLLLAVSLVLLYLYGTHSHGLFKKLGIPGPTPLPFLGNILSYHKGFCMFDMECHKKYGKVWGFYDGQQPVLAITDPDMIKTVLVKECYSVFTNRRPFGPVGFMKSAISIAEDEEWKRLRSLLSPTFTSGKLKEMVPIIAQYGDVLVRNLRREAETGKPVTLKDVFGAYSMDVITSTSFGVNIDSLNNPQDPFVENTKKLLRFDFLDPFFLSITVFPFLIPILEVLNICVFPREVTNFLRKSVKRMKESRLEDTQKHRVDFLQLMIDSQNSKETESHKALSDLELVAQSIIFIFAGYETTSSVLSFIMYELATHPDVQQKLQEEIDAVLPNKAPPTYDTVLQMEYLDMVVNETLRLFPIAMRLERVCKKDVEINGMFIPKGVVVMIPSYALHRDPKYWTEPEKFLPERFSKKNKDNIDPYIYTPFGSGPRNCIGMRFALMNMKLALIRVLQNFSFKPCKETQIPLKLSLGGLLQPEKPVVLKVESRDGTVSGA
Text: 8. Assay to Assess Irreversible CYP3A4 Inhibition
Cytochrom P450 enzyme inhibition, especially irreversible enzyme inhibition, also referred to as mechanism-based inhibition (MBI), is an unwanted metabolic property of a substance which may, on concurrent administration of other medicaments, lead to considerable drug interactions. Criteria for the presence of an irreversible inhibition are a time-, concentration- and cofactor- (nicotinamide adenine dinucleotide phosphate, NADPH) dependent inhibition. To this end, the compounds of the invention are incubated in vitro with human liver microsomes, the influence on the CYP3A4 activity and the metabolic degradation of the novel active ingredient is determined, and the prototypical parameters kinact, Ki and the partition ratio r are ascertained therefrom.
The compounds of the invention are incubated with concentrations of 2-20 μM. To this end, stock solutions of the active ingredients with a concentration of 0.2-2 mM are prepared in acetonitrile and then pipetted with a 1:100 dilution into the incubation mixture. The liver microsomes are incubated in 50 mM potassium phosphate buffer (pH 7.4) with and without NADPH-generating system consisting of 1 mM NADP^+, 5 mM glucose 6-phosphate and 1 unit of glucose 6-phosphate dehydrogenase, at 37° C. After defined preincubation times of 0-50 min, aliquots are removed from these mixtures, diluted 1:25 in a new incubation, and incubated in the presence of testosterone and new NADPH-generating system again for 20 min. These incubation mixtures are stopped with acetonitrile (final concentration about 30% v/v), and the protein is removed by centrifugation at about 15 000×g. The samples stopped in this way are either analyzed directly or stored at −20° C. until analyzed.
The analysis takes place by high performance liquid chromatography with mass spectrometry detection (LC-MS). The formation of 6β-hydroxytestosterone as measure of CYP3A4 activity, and the test substance still remaining is quantified. The parameters kinact, Ki and the partition ratio r are determined therefrom so as to assess the novel active ingredients in relation to MBI.

[2] = target: T2, human mineralocorticoid receptor (MR) (Homo sapiens, UniProt P08235); experiment: Cellular in vitro assay, GAL4-MR chimera luciferase reporter in CHO K1 cells (inhibitory MR activity); type: cell-based; conditions: antagonism vs aldosterone; CHO K1 GAL4-MR LBD luciferase reporter
T2 construct: expressed in transfected cells; host or cells: CHO K1
T2 sequence (P08235 734-984 limits assumed): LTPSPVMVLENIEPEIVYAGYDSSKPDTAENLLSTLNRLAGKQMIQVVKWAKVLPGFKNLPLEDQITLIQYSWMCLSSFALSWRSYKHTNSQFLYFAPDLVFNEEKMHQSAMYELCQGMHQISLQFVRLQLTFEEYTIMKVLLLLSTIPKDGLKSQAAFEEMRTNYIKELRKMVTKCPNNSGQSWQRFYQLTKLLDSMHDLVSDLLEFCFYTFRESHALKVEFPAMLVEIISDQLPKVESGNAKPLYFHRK
Procedure, shortened: (§1)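 CHO K1 cells stably expressing GAL4 DNA-binding domain fused to human MR, PR or AR ligand-binding domains plus GAL4-driven firefly luciferase; compounds added 10–30 min before agonist (aldosterone, progesterone or dihydrotestosterone), luciferase read after 5–6 h; IC50 from sigmoidal concentration–response curves.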

[3] = target: T3, progesterone receptor (PR) (Homo sapiens, UniProt P06401); experiment: Cellular in vitro assay, GAL4-PR chimera luciferase reporter in CHO K1 cells (selectivity); type: cell-based; conditions: antagonism vs progesterone; CHO K1 GAL4-PR LBD luciferase reporter
T3 construct: of the progesterone receptor (PR, amino acids 680-933); expressed in transfected cells; host or cells: CHO K1
T3 sequence (P06401 680-933): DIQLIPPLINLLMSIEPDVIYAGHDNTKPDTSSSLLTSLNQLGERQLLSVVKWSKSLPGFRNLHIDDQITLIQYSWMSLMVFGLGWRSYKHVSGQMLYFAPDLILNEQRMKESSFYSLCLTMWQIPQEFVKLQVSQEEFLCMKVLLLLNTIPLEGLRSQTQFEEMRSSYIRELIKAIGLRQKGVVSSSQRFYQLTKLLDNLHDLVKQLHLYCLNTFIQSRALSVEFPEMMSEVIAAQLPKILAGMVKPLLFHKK
Procedure, shortened: as §1

[4] = target: T4, androgen receptor (AR) (Homo sapiens, UniProt P10275); experiment: Cellular in vitro assay, GAL4-AR chimera luciferase reporter in CHO K1 cells (selectivity); type: cell-based; conditions: antagonism vs dihydrotestosterone; CHO K1 GAL4-AR LBD luciferase reporter
T4 construct: of the androgen receptor (AR, amino acids 667-919); expressed in transfected cells; host or cells: CHO K1
T4 sequence (P10275 668-920): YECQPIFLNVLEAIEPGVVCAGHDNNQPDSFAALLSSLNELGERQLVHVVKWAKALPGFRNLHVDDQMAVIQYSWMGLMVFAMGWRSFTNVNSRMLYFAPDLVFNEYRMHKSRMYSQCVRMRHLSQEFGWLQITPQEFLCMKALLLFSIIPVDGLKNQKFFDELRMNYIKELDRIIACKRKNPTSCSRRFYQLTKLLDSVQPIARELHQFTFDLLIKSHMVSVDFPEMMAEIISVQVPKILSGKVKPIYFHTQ
Procedure, shortened: as §1

[5] = target: T1, CYP3A4; experiment: CYP inhibition assay with human liver microsomes; type: in vitro ADME
Text: Inhibitory properties of an active ingredient on the cytochromes P450 (CYP) of the human body may entail extensive clinical effects (drug interactions) because most of the prescribed medicaments are degraded (metabolized) by these enzymes. The ones involved in this are in particular the CYP isoenzymes of the 1A and 2C families, CYP2D6 and, with a proportion of almost 50%, CYP3A4. In order to preclude or minimize these possible drug interactions (Drug-Drug Interactions, DDI), the ability of substances to be able to inhibit CYP1A2, CYP2C8, CYP2C9, CYP2D6 and CYP3A4 in humans is investigated using human liver microsomes (pool from various individuals). This takes place by measuring CYP isoform-specific metabolites formed from standard substrates such as, for example, phenacetin, amodiaquin, diclofenac, dextromethorphan, midazolam and testosterone. The inhibitory effects are investigated at six different concentrations of the test compounds (1.5, 3.1, 6.3, 12.5, 25 and 50 μM as maximum concentration or 0.6, 1.3, 2.5, 5, 10 and 20 μM as maximum concentration), comparing with the extent of the CYP isoform-specific metabolite formation of the standard substrates in the absence of the test compounds, and calculating the corresponding IC50 values. CYP isoform-specific standard inhibitors such as, for example, fluvoxamine, quercetin, sulfaphenazole, fluoxetine and ketoconazole serve as control of the results obtained. In order to obtain indications of the possible mechanism-based inhibitors (MBI) on CYP3A4, the human liver microsomes are incubated in the presence of the inhibitor to be investigated for 30 minutes before the addition of midazolam or testosterone as standard substrates of CYP3A4. A reduction in the IC50 obtained by comparison with the mixture without preincubation serves as an indicator of a mechanism-based inhibition. Mibefradil serves as positive control.
The incubations of the standard substrates with human liver microsomes (23-233 μg/mL) in the presence of the test compound (as potential inhibitor) are carried out in 96-well plates in a workstation (Tecan, Genesis, Crailsheim, Germany) at 37° C. The incubation times are 15-20 minutes. The test compounds are preferably dissolved in acetonitrile (1.0 or 2.5 mM stock solution). The 96-well plates are produced by sequential addition of a stock solution of NADP+, EDTA, glucose 6-phosphate and glucose-6-phosphate dehydrogenase in phosphate buffer (pH 7.4), the test compound, and a solution of standard substrate and human liver microsomes in phosphate buffer (pH 7.4). The total volume is 200 μl. The corresponding control incubations with and without standard inhibitor also take place on the 96-well plate. The incubations are stopped after the respective incubation time by adding 100 μl of acetonitrile in which there is a suitable internal standard. Precipitated proteins are removed by centrifugation (3000 rpm, 10 minutes, 10° C.). The resulting supernatants of the respective plates are combined on one plate and analyzed by LC-MS/MS. The […] values are generated from the resulting measured data and used to assess the inhibitory potential of the test compound.

| Partition ratio r [1] | IC50 [2] | IC50 [3] | IC50 [4] | IC50 ([5]; 30 min preincubation with test compound before substrate, read-out: CYP 3A4 Preincubation, 30 min.) | IC50 ([5]; without preincubation, read-out: CYP 3A4 Coincubation) | Compound |
| --- | --- | --- | --- | --- | --- | --- |
| >200 | 0.008 µM | 10 µM | 3.9 µM | – | – | CS(=O)(=O)Cc1cc(F)cc2c(C(c3ccc(Cl)cc3)C3CC3C#N)c[nH]c12 (single isomer, unassigned) [Example 277-1-1, 2-[(4-Chlorophenyl){5-fluoro-7-[(methylsulfonyl)methyl]-1H-indol-3-yl}methyl]cyclopropane-carbonitrile] |
| 100 | 0.09 µM | 4.07 µM | 5.67 µM | – | – | CS(=O)(=O)Cc1cccc2c(C(CCC#N)c3ccc(C(F)(F)F)cc3)c[nH]c12 (single isomer, unassigned) [Example 56-1, 4-{7-[(Methylsulfonyl)methyl]-1H-indol-3-yl}-4-[4-(trifluoromethyl)phenyl]butanonitrile] |
| >200 | 0.007 µM | 3 µM | 1.29 µM | – | – | CS(=O)(=O)Cc1cc(F)cc2c(C(c3ccc(F)cc3Cl)C3CC3C#N)c[nH]c12 (single isomer, unassigned) [Example 266-1, 2-[(2-Chloro-4-fluorophenyl){5-fluoro-7-[(methylsulfonyl)methyl]-1H-indol-3-yl}methyl]cyclopropanecarbonitrile] |
| 250 | – | – | – | 11.2 µM | > 20 µM | CS(=O)(=O)Cc1cccc2c(C(c3ccc(F)cc3)c3ccc(Cl)cc3F)c[nH]c12 (single isomer, unassigned) [Example 118-1, 3-[(4-Chloro-2-fluorophenyl)(4-fluorophenyl)methyl]-7-[(methylsulfonyl)methyl]-1H-indole] |
